US12194039B2, “Methods of treating heart failure by administering omecamtiv mecarbil” (Cytokinetics, Inc., priority 2020, dated 2025)
Like-named read-outs stand apart in the source and are kept apart here.

How the values were obtained:
[1] = test system: patients with heart failure and reduced ejection fraction; assay type: in vivo, human; details: for Creatinine, change from baseline, mean / Heart rate, change from baseline, mean / Potassium, change from baseline, mean / Systolic blood pressure, change from baseline, mean / Troponin, change from baseline, median: N = 4110
Experimental: All eligible participants were randomized 1:1 to oral administration of either placebo or omecamtiv mecarbil (pharmacokinetic-guided dosing: 25, 37.5 or 50 mg) twice daily. Pre-dose plasma concentrations of omecamtiv mecarbil were measured at weeks 2 and 6 with respective dose adjustments on weeks 4 and 8. The patient and investigator were blinded to the plasma concentrations and dispensed dose. The full schedule of assessments is provided in the protocol available at NEJM.org. Study drug was temporarily withheld if the participant experienced clinical signs or symptoms consistent with acute myocardial infarction or ischemia.
Other outcomes of interest included the effects of omecamtiv mecarbil on vital signs and selected laboratory values (Table 3).
Continuous variables were summarized as means±standard deviations (SD) or medians and first and third quartiles (Q1, Q3), as appropriate. Categorical variables were summarized as counts and percentages. […] The change from baseline on NT-proBNP analysis included all participants who underwent randomization. The difference column is the exponentiated change from baseline on the log scale using a mixed model containing the log baseline value, region, baseline eGFR, scheduled visit, treatment group and interaction of treatment with scheduled visit.

[2] = Single 35 mg dose of radiolabeled OM: blood to plasma ratio and excretion; assay type: in vivo, human; details: oral radiolabeled OM, healthy subjects
From the text: The volume of distribution at steady state was approximately 4.8-6.6 L/kg.
Clearance of OM after oral administration was primarily through metabolism in the liver. […] Following oral administration of radiolabeled OM to healthy subjects, approximately 49% of the dose was excreted in urine (primarily as metabolites with 8% of parent compound recovered) and 38% in feces (primarily as unchanged drug).

MATE1 = molecular target: T1, MATE1 (Homo sapiens, UniProt Q96FL8); experiment: In vitro inhibition by OM; assay type: in vitro ADME; details: result in words
T1 sequence (Q96FL8 1-570): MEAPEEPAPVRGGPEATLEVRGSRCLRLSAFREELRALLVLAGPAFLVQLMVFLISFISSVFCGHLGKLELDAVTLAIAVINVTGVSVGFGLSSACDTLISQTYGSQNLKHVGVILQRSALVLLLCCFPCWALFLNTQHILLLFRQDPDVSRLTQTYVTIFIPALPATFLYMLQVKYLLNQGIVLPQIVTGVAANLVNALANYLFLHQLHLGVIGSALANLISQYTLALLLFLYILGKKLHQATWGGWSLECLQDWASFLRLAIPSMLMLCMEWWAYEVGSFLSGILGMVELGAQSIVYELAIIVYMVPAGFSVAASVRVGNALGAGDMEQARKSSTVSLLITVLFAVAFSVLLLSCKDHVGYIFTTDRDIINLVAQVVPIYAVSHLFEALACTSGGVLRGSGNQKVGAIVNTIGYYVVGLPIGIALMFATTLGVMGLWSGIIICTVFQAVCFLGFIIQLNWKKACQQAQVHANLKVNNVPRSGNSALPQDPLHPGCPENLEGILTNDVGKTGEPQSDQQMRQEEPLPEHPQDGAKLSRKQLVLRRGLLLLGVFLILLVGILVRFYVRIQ

CYP2C8 = molecular target: T2, CYP2C8 (Homo sapiens, UniProt P10632); experiment: Clinical studies and physiologically based pharmacokinetic modeling of OM as perpetrator; assay type: in vivo; parameters: from tissue; details: clinical studies and PBPK modeling; result in words
T2 sequence (P10632 1-490): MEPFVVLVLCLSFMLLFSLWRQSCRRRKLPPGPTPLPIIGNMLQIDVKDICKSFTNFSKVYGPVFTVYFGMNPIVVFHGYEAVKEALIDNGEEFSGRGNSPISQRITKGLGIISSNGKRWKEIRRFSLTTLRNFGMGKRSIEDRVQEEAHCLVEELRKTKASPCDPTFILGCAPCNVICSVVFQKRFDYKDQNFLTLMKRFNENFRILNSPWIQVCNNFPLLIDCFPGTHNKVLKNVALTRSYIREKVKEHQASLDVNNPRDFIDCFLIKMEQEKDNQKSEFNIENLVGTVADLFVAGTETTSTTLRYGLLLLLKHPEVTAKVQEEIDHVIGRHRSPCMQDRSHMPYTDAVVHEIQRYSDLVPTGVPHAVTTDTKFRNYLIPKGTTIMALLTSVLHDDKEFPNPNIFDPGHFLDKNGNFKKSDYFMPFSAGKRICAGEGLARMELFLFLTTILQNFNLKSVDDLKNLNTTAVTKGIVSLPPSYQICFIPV
From the text: OM may be administered with drugs that are substrates of CYP3A4, CYP2C8, P-gp or BCRP.

In the case of `COC(=O)N1CCN(Cc2cccc(NC(=O)Nc3ccc(C)nc3)c2F)CC1` [omecamtiv mecarbil], the “Creatinine, change from baseline, difference vs placebo” value ([1]; Week 24) was 0.007 mg/dL, the “Heart rate, change from baseline, difference vs placebo” value ([1]; Week 24) was −1.61 bpm and the “Potassium, change from baseline, difference vs placebo” value ([1]; Week 24) was 0.002 mmol/L. The “Systolic blood pressure, change from baseline, difference vs placebo” value ([1]; Week 24) was −0.13 mmHg, the “Creatinine, change from baseline, mean” value ([1]; Week 24) was 0.03 mg/dL and the “Heart rate, change from baseline, mean” value ([1]; Week 24) was −2.1 bpm. For the same compound, the “Potassium, change from baseline, mean” value ([1]; Week 24) was -0.01 mmol/L, the “Systolic blood pressure, change from baseline, mean” value ([1]; Week 24) was 1.4 mmHg and the “Troponin, change from baseline, median” value ([1]; Week 24) was 0.004 ng/mL. The “NT-proBNP, change from baseline, median” value ([1]; Week 24, all randomized participants) was -251 pg/mL, the “Troponin, change from baseline, difference vs placebo” value ([1]; Week 24, lower limit of quantification 0.010 ng/mL) was 0.004 ng/mL and the “NT-proBNP, exponentiated change from baseline on the log scale, omecamtiv mecarbil vs placebo” value ([1]; Week 24, mixed model) was 0.90. The “NT-proBNP concentrations compared to placebo” value ([1]; Week 24, result in words) was “significantly decreased”, the “Creatinine, change from baseline, difference vs placebo” value ([1]; Week 48) was 0.010 mg/dL and the “Heart rate, change from baseline, difference vs placebo” value ([1]; Week 48) was −1.75 bpm. The “Potassium, change from baseline, difference vs placebo” value ([1]; Week 48) was -0.007 mmol/L, the “Systolic blood pressure, change from baseline, difference vs placebo” value ([1]; Week 48) was 0.16 mmHg and the “Troponin, change from baseline, difference vs placebo” value ([1]; Week 48) was 0.002 ng/mL. The “Creatinine, change from baseline, mean” value ([1]; Week 48) was 0.06 mg/dL, the “Heart rate, change from baseline, mean” value ([1]; Week 48) was −2.0 bpm and the “Potassium, change from baseline, mean” value ([1]; Week 48) was -0.03 mmol/L. For the same compound, the “Systolic blood pressure, change from baseline, mean” value ([1]; Week 48) was 2.0 mmHg, the “Troponin, change from baseline, median” value ([1]; Week 48) was 0.002 ng/mL and the “Heart rate compared to placebo” value ([1]; at 24 and 48 weeks, result in words) was “small but significant decrease”. The “Change in systolic blood pressure, omecamtiv mecarbil vs placebo” value ([1]; at 24 or 48 weeks, result in words) was “no significant difference”, the “Potassium or creatinine concentrations compared to placebo” value ([1]; during the course of the trial, result in words) was “no change” and the “Parent compound recovered in urine” value [2] was 8%. For the same compound, the “Dose excreted in urine” value ([2]; primarily as metabolites) was “approximately 49%”, the “Dose excreted in feces” value ([2]; primarily as unchanged drug) was ~38% and the “Inhibition of MATE1” value (MATE1) was “inhibitor”. For the same compound, the “Inhibition of CYP2C8” value (CYP2C8) was “weak inhibitor”.
